Four substances from patent US20160083429A1, “COMPOSITIONS AND METHODS FOR ENDOTOXIN NEUTRALIZATION” (Immunotrex Biologics, Inc., priority 2014, published 2016) can be followed below.

A short description of experiment [1]: ESI-MS detection of peptide-Lipid-A complex formation. It counts as binding. Conditions: CHL/MeOH/H2O solutions; D-Lipid-A 0.005 mg/mL. As to the method: In this example, electrospray ionization mass spectrometry experiments were carried out on Lipid-A (D-Lipid-A) and peptides WK-11, KK-12, KK-11 under a variety of solution and mass spectrometry conditions. Binding of D-Lipid-A to WK-11, KK-12, KK-11 peptides was observed by mass spectrometry methods, as quite abundant ion (LipidA-peptide) complexes were detected from CHL/MeOH/H2O solutions.
Materials: Three peptides KFFKKFFKFFKK (SEQ ID NO: 1; KK-12), WKKWWKKWWKK (SEQ ID NO: 2; WK-11), and KKKKFFFKFFK (SEQ ID NO: 3; KK-11) were ordered from a custom commercial synthesis. Diphosphoryl Lip-A (D-Lipid-A) (C94O25N2P2H178) was obtained from Sigma.
Chemicals: chloroform (CHL), methanol (MeOH), Water (H2O), triethylamine (TEA), ammonium acetate.
Instrumentation: Micro-TOF ESI-MS (Bruker Daltonics); Q-Star-XL nano-ESI-MS (AB-SCIEX).
Solubility studies were performed in order to optimize the solubility of both the peptides and diphosphoryl Lipid A. Solution conditions for electrospray ionization mass spectrometry experiments on diphosphoryl Lipid A and peptides were evaluated using (CHL)X(MeOH)Y(H2O)Z, where X=0-70%; Y=0-70%; and Z=0-95%.
In one experiment, Diphosphoryl Lipid A (0.005 mg/mL) and WK-11 (0.005 mg/mL) were dissolved in 70% CHL/30% MeOH/0.5% water and evaluated by ESI-MS. Electrospray ionization mass spectrometry (ESI-MS) of peptide WK-11 and Lipid-A and detection of complex formation is shown in FIG. 6. Single circles show fragments assigned to the peptide. Double circles show lipid A bound to peptide WK-11.
In another experiment, Diphosphoryl Lipid A (0.005 mg/mL) and KK-12 (0.005 mg/mL) were dissolved in 70% CHL/30% MeOH/0.5% water and evaluated by ESI-MS. Single circles show fragments assigned to the peptide. Double circles show lipid A bound to peptide KK-12.
In another experiment, Diphosphoryl Lipid A (0.005 mg/mL) and KK-11 (0.015 mg/mL) were dissolved in 30% CHL/68% MeOH/2% water and evaluated by ESI-MS. Single circles show fragments assigned to the peptide. Double circles show lipid A bound to peptide KK-11.

The nature of experiment [2]: ESI-MS competition ranking of Lipid A-binding propensities of peptides. The note with it: for relative binding affinity Ka with D-Lipid-A, competition WK-11 vs KK-12 / relative binding affinity Ka with D-Lipid-A, competition WK-11 vs KK-11 / relative binding affinity Ka with D-Lipid-A, competition KK-12 vs KK-11: 0.0032 mg/mL each peptide; for relative binding affinity Ka with D-Lipid-A, competition WK-11 vs KK-12: D-lipid-A 0.001-0.0050 mg/mL, FIG. 20A; for relative binding affinity Ka with D-Lipid-A, competition WK-11 vs KK-12 / relative binding affinity Ka with D-Lipid-A, competition WK-11 vs KK-11: R-ratios; for relative binding affinity Ka with D-Lipid-A, competition WK-11 vs KK-11: increasing D-lipid-A, FIG. 20B; for rank order of relative binding affinities (Ka) to D-lipid-A, combined data of Example 4: combined competition data; for relative binding affinity Ka with D-Lipid-A, competition KK-12 vs KK-11: D-lipid-A 0.005 mg/mL. An excerpt: ESI-MS based methods were used to rank binding affinities of peptides WK-11, KK-12, and KK-11 to diphosphoryl lipid A in CHL/MeOH/H2O, 45%/55%/0.05%, unless otherwise specified.
Materials and Chemicals were the same as shown in Example 3.
Instrumentation included Micro-TOF ESI-MS (Bruker Daltonics); FT-ICR-MS NanoDrop-2000 UV-Vis Spectrophotometer.
A series of ESI-MS competition experiments were designed to determine relative binding intensities of peptide-lipid A complexes in ESI-MS while varying the concentration of the D-lipid-A.
Then, an equal concentration of both peptides was employed, while increasing the concentration of the D-lipid-A in three experiments, as shown in FIGS. 12-14. Double circles surround lipid-A bound to peptide WK-11 (“1”) or lipid-A bound to KK-12 (“2”).
Resultant signal intensities of peptides and their complexes with D-lipid-A were used to plot R-ratios, determined as in Eq. 1, against D-Lipid-A concentrations.
R═Itotal(peptide:Lipid)/Itotal(peptide) [Eq. 1]
Comparison of the corresponding R-functions allows us to rank the peptides Ka binding constants, assuming that the value of the ratio between signal-response factors of complexes is approximately the same or deviates only weakly from the one for corresponding free peptides.
Then, an equal concentration of both peptides was employed, while increasing the concentration of the D-lipid-A in three experiments, two of which are shown in FIGS. 17-18. Double circles surround lipid-A bound to peptide WK-11 (“1”) or lipid-A bound to KK-11 (“2”).
Resultant signal intensities of peptides and their complexes with D-lipid-A were used to plot R-ratios, determined as in Eq. 1, against D-Lipid-A concentrations, as in Example 4B.

Experiment [3] deals with THP-1 cell line. The experiment can be described thus: Peptides block effect of LPS in THP-1 cell line. It counts as cell-based, human. Conditions: THP-1 stimulated with LPS 1 mg/mL, treated after 24 hours with peptide 0.5 mg/mL. As to the method: THP-1 is a human monocytic cell line derived from an acute monocytic leukemia patient. It is typically used to test immunocytochemical analysis of protein-protein interaction and immunohistochemistry. THP-1 cell line can provide continuous culture, grown in suspension, for example, RPMI 1640+10% FBS+2 mM L-glutamine. The average doubling time is 35 to 50 hrs. To inhibit bacterial growth, 1 mM sodium pyruvate, penicillin (100 units/mL) or streptomycin (100 ug/mL) can be employed. Cultures are typically maintained at between 2-9×10^5 cells/mL at 37 degrees C., and 5% CO2. The cells are generally non-adhesive.
THP-1 cell line in culture was stimulated with 1 mg/mL LPS.
In contrast, THP-1 stimulated with LPS (1 mg/mL) and then treated after 24 hours with Peptide 1 (KK-12)(SEQ ID NO: 1) (0.5 mg/mL).

Consider “Angiotensin (DRVYIHPFHL; Angiotensin-1; UniProt P01019 25-34, looked up) [control standard peptide with size similar to KDEON peptides, reference compound]”, for which, in experiment [1], the “binding to Lipid A (complex formation detected by ESI-MS)” value is “no sign of binding propensity to D-Lipid-A”.

For the substance WKKWWKKWWKK [WK-11], the “binding to Lipid A (complex formation detected by ESI-MS)” value in experiment [1] is recorded as “specifically binds to Lipid A”. Besides, in experiment [2], the “relative binding affinity Ka with D-Lipid-A, competition WK-11 vs KK-12” value is “Ka(WK-11)>Ka(KK-12)”; the “relative binding affinity Ka with D-Lipid-A, competition WK-11 vs KK-11” value is on record as “Ka(WK-11)≧Ka(KK-11)”; the “rank order of relative binding affinities (Ka) to D-lipid-A, combined data of Example 4” value is on record as “Ka(WK-11)≧Ka(KK-11)>Ka(KK-12)”.

For the substance KKKKFFFKFFK [KK-11], the “binding to Lipid A (complex formation detected by ESI-MS)” value in experiment [1] is on record as “specifically binds to Lipid A”. For the same substance, in experiment [2], the “relative binding affinity Ka with D-Lipid-A, competition KK-12 vs KK-11” value is “Ka(KK-11)>Ka (KK-12)”; the “relative binding affinity Ka with D-Lipid-A, competition WK-11 vs KK-11” value is on record as “Ka(WK-11)≧Ka(KK-11)”; the “rank order of relative binding affinities (Ka) to D-lipid-A, combined data of Example 4” value is on record as “Ka(WK-11)≧Ka(KK-11)>Ka(KK-12)”.

On to KFFKKFFKFFKK [KK-12], for which the “binding to Lipid A (complex formation detected by ESI-MS)” value in experiment [1] is “specifically binds to Lipid A”. Also, the “effect on LPS-stimulated THP-1 cells (cell adherence, outer membrane shape and color)” value in experiment [3] is reported as “appears to reverse the effects of LPS”. Moreover, in experiment [2], the “relative binding affinity Ka with D-Lipid-A, competition KK-12 vs KK-11” value is on record as “Ka(KK-11)>Ka (KK-12)”; the “relative binding affinity Ka with D-Lipid-A, competition WK-11 vs KK-12” value was “Ka(WK-11)>Ka(KK-12)”; the “rank order of relative binding affinities (Ka) to D-lipid-A, combined data of Example 4” value is reported as “Ka(WK-11)≧Ka(KK-11)>Ka(KK-12)”.
